Measured values: patent US20050192279A1, “Pyridazinones as antagonists of alpha4 integrins” (priority 2004, published 2005)
pIC50: −log10 of the molar value.

Molecular target: T1, human α4β7 integrin (Homo sapiens, UniProt P13612+P26010)
T1 construct: expressed in transfected cells; host or cells: K562 cells, stably transfected
T1 sequence (P13612 34-1032): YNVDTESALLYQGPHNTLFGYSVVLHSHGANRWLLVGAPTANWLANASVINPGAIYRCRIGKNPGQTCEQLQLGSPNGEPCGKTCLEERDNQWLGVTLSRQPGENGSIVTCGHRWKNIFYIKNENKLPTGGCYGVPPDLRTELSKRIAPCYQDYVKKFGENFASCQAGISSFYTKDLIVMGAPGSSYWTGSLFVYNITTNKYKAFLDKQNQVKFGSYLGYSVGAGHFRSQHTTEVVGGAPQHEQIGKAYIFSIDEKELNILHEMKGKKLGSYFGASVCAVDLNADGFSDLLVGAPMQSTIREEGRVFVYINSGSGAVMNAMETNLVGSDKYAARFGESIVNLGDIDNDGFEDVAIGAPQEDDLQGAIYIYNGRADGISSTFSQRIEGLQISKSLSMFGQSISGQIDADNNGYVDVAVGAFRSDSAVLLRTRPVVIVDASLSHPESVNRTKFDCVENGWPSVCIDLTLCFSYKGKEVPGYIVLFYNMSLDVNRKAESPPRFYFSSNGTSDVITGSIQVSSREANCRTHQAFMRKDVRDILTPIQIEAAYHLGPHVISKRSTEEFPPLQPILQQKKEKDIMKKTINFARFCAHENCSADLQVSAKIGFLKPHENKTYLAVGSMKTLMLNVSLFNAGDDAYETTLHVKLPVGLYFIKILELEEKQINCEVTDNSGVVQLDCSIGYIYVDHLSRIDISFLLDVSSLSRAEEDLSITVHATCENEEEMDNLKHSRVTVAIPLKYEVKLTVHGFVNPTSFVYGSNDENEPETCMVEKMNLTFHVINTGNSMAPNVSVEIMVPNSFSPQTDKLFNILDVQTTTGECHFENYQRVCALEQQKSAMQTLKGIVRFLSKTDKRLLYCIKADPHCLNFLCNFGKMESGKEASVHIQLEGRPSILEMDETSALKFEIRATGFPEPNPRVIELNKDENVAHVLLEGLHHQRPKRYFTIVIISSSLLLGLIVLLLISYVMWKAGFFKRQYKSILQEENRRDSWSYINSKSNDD
T1 sequence (P26010 20-798): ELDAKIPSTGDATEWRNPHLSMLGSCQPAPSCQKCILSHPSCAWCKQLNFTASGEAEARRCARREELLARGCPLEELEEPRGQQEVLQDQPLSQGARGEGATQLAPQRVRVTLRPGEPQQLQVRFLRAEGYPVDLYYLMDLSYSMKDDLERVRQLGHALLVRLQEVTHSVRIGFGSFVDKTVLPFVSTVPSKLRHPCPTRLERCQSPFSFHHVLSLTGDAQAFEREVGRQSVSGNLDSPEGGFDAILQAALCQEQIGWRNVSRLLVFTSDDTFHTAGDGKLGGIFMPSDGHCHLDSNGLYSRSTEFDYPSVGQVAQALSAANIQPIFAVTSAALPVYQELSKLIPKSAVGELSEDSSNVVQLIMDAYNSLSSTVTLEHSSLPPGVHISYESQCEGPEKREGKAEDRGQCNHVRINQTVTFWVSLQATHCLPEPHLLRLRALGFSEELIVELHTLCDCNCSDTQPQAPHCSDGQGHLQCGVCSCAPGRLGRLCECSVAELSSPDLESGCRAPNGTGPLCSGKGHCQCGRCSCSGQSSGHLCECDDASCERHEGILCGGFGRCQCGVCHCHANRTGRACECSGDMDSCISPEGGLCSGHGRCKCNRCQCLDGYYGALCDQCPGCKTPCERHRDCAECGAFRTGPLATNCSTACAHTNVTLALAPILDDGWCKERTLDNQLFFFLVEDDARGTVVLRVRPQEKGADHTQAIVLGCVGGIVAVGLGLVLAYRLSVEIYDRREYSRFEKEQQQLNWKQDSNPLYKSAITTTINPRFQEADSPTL
Test: α4β7-K562 Cell Adhesion Assay (α4β7 Mediated Adhesion/MAdCAM-1)
Type: cell-based
Details: α4β7-K562 cell adhesion to hMAdCAM-1; read-out: α4β7 IC50
Outline: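 Anti-FLAG plates coated 1 h at 4° C with FLAG-hMAdCAM-1 in PBS pH 7.4, 1% BSA, 1 mM Mn2+. Stably transfected K562 cells expressing human α4β7, labelled with CFDA-SE, adhered with compound 1 h at room temperature. After four washes, bound cells lysed in 0.1 M NaOH for fluorescence read-out.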

Compound | pIC50
COc1cnn(CC(N)=O)c(=O)c1-c1ccc(C[C@H](NC(=O)c2c(Cl)cccc2Cl)C(=O)O)cc1 [Cpd 5] | 9.00
COc1cnn(CCN2CCOCC2)c(=O)c1-c1ccc(C[C@H](NC(=O)c2c(Cl)cccc2Cl)C(=O)O)cc1 [Cpd 10] | 8.70
COc1cnn(CC(=O)O)c(=O)c1-c1ccc(C[C@H](NC(=O)c2c(Cl)cccc2Cl)C(=O)O)cc1 [Cpd 11] | 8.70
COc1cnn(CCO)c(=O)c1-c1ccc(C[C@H](NC(=O)c2c(Cl)cccc2Cl)C(=O)O)cc1 [Cpd 15, (S)-2-(2,6-Dichloro-benzoylamino)-3{4-[2-(2-hydroxy-ethyl)-5-methoxy-3-oxo-2,3-dihydro-pyridazin-4-yl]-phenyl}-propionic acid] | 8.70
CNc1cnn(CC(C)=O)c(=O)c1-c1ccc(C[C@H](NC(=O)c2c(Cl)cccc2Cl)C(=O)O)cc1 [Cpd 18] | 8.52
O=C(N[C@@H](Cc1ccc(-c2c(OCc3cccnc3)cnn(CCO)c2=O)cc1)C(=O)O)c1c(Cl)cccc1Cl [Cpd 30] | 8.22
O=C(N[C@@H](Cc1ccc(-c2c(OCC3CC3)cnn(CCO)c2=O)cc1)C(=O)O)c1c(Cl)cccc1Cl [Cpd 35] | 8.10
Cn1ncc(N)c(-c2ccc(C[C@H](NC(=O)c3c(Cl)cccc3Cl)C(=O)O)cc2)c1=O [Cpd 46] | 7.89
O=C(N[C@@H](Cc1ccc(-c2c(N3CCOCC3)cnn(CCO)c2=O)cc1)C(=O)O)c1c(Cl)cccc1Cl [Cpd 61] | 7.70
COc1cnn(C)c(=O)c1-c1ccc(C[C@H](NC(=O)[C@@H]2C3CCC(CC3)N2C(=O)CCc2ccccc2)C(=O)O)cc1 [Cpd 89, 3-[4-(5-Methoxy-2-methyl-3-oxo-2,3-dihydro-pyridazin-4-yl)-phenyl]-2(S)-{[2-(3-phenyl-propionyl)-2-aza-bicyclo[2.2.2]octane-3(S)-carbonyl]-amino}-propionic acid] | 7.33
COc1cnn(CCO)c(=O)c1-c1ccc(C[C@H](NC(=O)OC(C)(C)C)C(=O)O)cc1 [Cpd 120] | 6.95
COC(=O)[C@H](Cc1ccc(-c2c(OC)cnn(C)c2=O)cc1)NC(=O)c1c(Cl)cccc1Cl [Cpd 151] | 6.56
COc1cnn(CCO)c(=O)c1-c1ccc(C[C@H](NC(=O)c2c(Cl)cccc2Cl)C(=O)OCCO)cc1 [Cpd 199] | 5.86
COc1cnn(C)c(=O)c1-c1ccc(C[C@H](NC(=O)c2c(Cl)cccc2Cl)C(=O)OCC(C)(C)C)cc1 [Cpd 207] | 5.57
Cn1ncc(N)c(-c2ccc(C[C@H](NC(=O)c3c(Cl)cccc3Cl)C(=O)OCCO)cc2)c1=O [Cpd 232] | < 5.30
